Data on two compounds can be found in patent publication US11207427B2, “System and method for diagnosis of astrocytic brain tumor” (Dignity Health, priority 2012, dated 2021).

Molecules are shown by their SMILES. Entries after “also recorded” stand apart in the source; their conditions may differ.

For assay [1], the system named is GFAP-positive astrocytoma cells (U251). The assay can be described thus: Fixable SR101 co-labeling with GFAP in astrocytoma xenograft acute slices, confocal stereology. The class given is cell-based, human astrocytoma cells implanted in nude rats. To be noted: for cells positive for fixable SR101 in astrocytoma tumor regions: tumor core, acute slices, GFAP and DAPI counterstain. The protocol:
(§1) Xenograft acute slices were incubated with the fixable version of SR101 (Texas Red Hydrazide; Sigma), washed at room temperature, and fixed with 4% paraformaldehyde for 12 hours at 4 degrees C. Slices were then rinsed in phosphate buffered saline, permeabilized with 0.3% triton, and blocked with CAS block (Invitrogen) (reference Pierre's paper). GBM xenograft slices were incubated 12-hours in anti-GFAP primary antibody (Millipore; 1:500), and Lymphoma sections were incubated 12-hours in anti-CD20 primary antibody (Millipore; 1:250). Sections were then rinsed and incubated with AlexaFluor488 secondary antibody (Invitrogen), followed by nuclear counterstaining with Dapi (Invitrogen). Fluorescently labeled sections were mounted on slides with vectashield (Vector labs) and No1.5 coverslips (VWR).
We randomly selected one rostral, midline, and caudal acute slice from each brain containing tumor incubated with fixable SR101. Glioma slices were immunofluorescently stained for GFAP, and slices containing lymphoma were stained for CD20. Ten randomly selected 150 um^2 tumor areas in each slice were optically sectioned to 50 um with a Zeiss 710LSM. The first […] of each image stack was discarded to minimize counts from cells damaged during sectioning. A maximum intensity projection image was generated from the remaining 45 um, and a stereology dissector was overlaid onto the image. Cells within the dissector, and those in contact with its left and bottom edges were counted for either GFAP or CD20 positivity, and for SR101 positivity. The percent overlap between immunostaining and SR101 positivity was calculated. […]
(§2) Next, we incubated acute slices from astrocytoma and CNS lymphoma animal models with fixable-SR101 and quantified the staining localization to GFAP for astrocytoma slices and CD20 for lymphoma slices. We adapted standard stereology approaches to quantify tumor cells labeled with fixable-SR101 and GFAP or CD20 antibodies. […]
For orientation: In xenograft studies the graft and the host belong to different species.

Assay [2] deals with CD20 positive lymphoma cells (MC116). The assay can be described thus: SR101 / fixable SR101 staining and CD20 co-labeling in CNS lymphoma xenograft acute slices, confocal stereology. The assay is classed as cell-based, human CNS lymphoma cells implanted in nude rats. The protocol:
as §1, with “Fluorescently labeled sections were mounted on slides with vectashield (Vector labs) and No1.5 coverslips (VWR).” left out
We randomly selected one rostral, midline, and caudal acute slice from each brain containing tumor incubated with fixable SR101. […] Cells within the dissector, and those in contact with its left and bottom edges were counted for either GFAP or CD20 positivity, and for SR101 positivity. The percent overlap between immunostaining and SR101 positivity was calculated. […]
as §2

The next assay concerns U251 derived tumor. Kind of assay: SR101 staining of acute slices from U251 rodent xenografts, confocal imaging. The assay is classed as cell-based, human astrocytoma cells implanted in nude rats. As to the method:
Animals were anesthetized by intramuscular injection of a mixture of 10 mg/kg xylazine and 80 mg/kg ketamine (Wyeth, Madison, N.J.) and placed in a small animal stereotactic headframe (Model 900, David Kopf Instruments, Tujunga, Calif.). A 10-mm incision was made starting between the animal's eyes, exposing bregma. A bur hole was made 3.5 mm lateral to bregma. U251 or MC116 cells were infused at a depth of 4.5 mm below the surface of the brain after the syringe (Hamilton) was advanced 5.0 mm to create a 0.5-mm pocket. The cell suspension was infused using a UMP3-1 UltraMicroPump microinjector (WPI, Sarasota, Fla.) set to a volume of […] with an infusion rate of 3.00 μL/minute. The needle was withdrawn 2 minutes after the injection to minimize backflow of the cell suspension. The bur hole was covered with bone wax and the skin incision was sutured.
Twenty days post-implantation, rats were deeply anesthetized using the xylazine/ketamine mixture as described previously. Animals were rapidly decapitated, brains were removed, and coronal cortical slices (350 μm thick) were cut on a vibratome (Trent's aCSF protocol). Slices were then incubated at room temperature in aCSF containing 5 uM SR101 for 20 minutes followed by a 10 minute wash in aCSF.
(§3) SR101-labeled samples were placed in uncoated No. 1.5 glass-bottom dishes and positioned on the stage of a Zeiss 710 laser scanning confocal microscope equipped with a 40×/1.2 NA water emersion objection. We imaged SR101 by exciting the fluorophore with a 561 nm diode laser and collecting 595 nm-625 nm emission. The confocal aperature was set to Airy unit for all imaging. The laser and gain values were set to fill the dynamic range of the photomultiplier tube, and the frame size was set to sample at nyquist. Images were collected in 8 and 12 bit format absent of non-linear processing. An unstained adjacent tissue sample was imaged with each sample. In some cases, large field-of-view tiled and optically sectioned images were rapidly acquired using a Zeiss line-sweeping confocal microscope. […]

For assay [3], the system named is human glioma cell line U251. The assay can be described thus: In vitro SR101 labeling of cultured astrocytoma cells. The class given is cell-based. To be noted: 5 uM SR101, 20 minutes, DIC imaging with fluorescence overlay. As to the method:
We acquired human glioma cell line U251 and human CNS lymphoma cell line MC116 from ATCC. Cells were maintained in culture with DMEM media supplemented with 10% FBS, and RPMI media supplemented with 20% FBS respectively (all from Invitrogen, Grand Island, N.Y.). Cells were grown at 37° C. in a humidified incubator under 5% CO2.
We labeled U251 glioma cells by seeding a collagen-coated glass-bottom dish (MatTek) with 100,000 cells. After 24 hours, media was replaced with aCSF containing 5 uM SR101 (Sigma) for 20 minutes, followed by two 5 minute washes with standard aCSF.
as §3

Assay [4] relates to human brain tumor biopsies. The assay can be described thus: SR101 staining of fresh human brain tumor biopsies, confocal imaging. The assay is classed as cell-based. The protocol: This research was approved by the institutional review board at St. Joseph's Hospital and Medical Center and all surgery was performed at the Barrow Neurological Institute. All subjects were consented pre-operatively for participation. Samples were obtained at the time of craniotomy from within the tumor mass at a location determined to be safe by the surgeon. The samples, averaging 4×2×2 mm in size, were transferred into ice-cold artificial cerebrospinal fluid (aCSF) containing 5 uM SR101. Samples were then transferred from the operating room to the laboratory, rinsed with aCSF (10 minutes), and immediately imaged.
SR101-labeled samples were placed in uncoated No. 1.5 glass-bottom dishes and positioned on the stage of a Zeiss 710 laser scanning confocal microscope equipped with a 40×/1.2 NA water emersion objection. We imaged SR101 by exciting the fluorophore with a 561 nm diode laser and collecting 595 nm-625 nm emission. The confocal aperature was set to Airy unit for all imaging. The laser and gain values were set to fill the dynamic range of the photomultiplier tube, and the frame size was set to sample at nyquist. Images were collected in 8 and 12 bit format absent of non-linear processing. An unstained adjacent tissue sample was imaged with each sample. In some cases, large field-of-view tiled and optically sectioned images were rapidly acquired using a Zeiss line-sweeping confocal microscope. Frame size for this system was fixed to 512×512 by a linear charged coupled device (CCD) array.
After we identified SR101's ability to rapidly label and differentiate astrocytoma cells and reactive astrocytes in animal models, we tested its utility as an intraoperative diagnostic agent. We determined the feasibility of intraoperatively identifying astrocytic brain tumors by confocal fluorescence imaging of fresh human brain tumor biopsies labeled with SR101. We screened samples from 60* patients with a total of 10 common human brain tumor types. The diagnosis as determined by traditional immunohistochemistry and paraffin-embedded hematoxylin and eosin histopathology was accepted as the final diagnosis for the purposes of comparison.
Tissue samples were transported in artificial cerebrospinal fluid and imaged within 30-40 minutes of resection. We first found SR101 filled the cytoplasm of astrocytes in non-tumor burdened brain (FIG. 4A). Next, we studied tissue sampled from tumor margins and found SR101 filled the cytoplasm of reactive astrocytes and tumor cells in these regions (FIG. 4B). […] At higher magnification we observed that SR101 delineated some cell nuclei and identified nuclear atypia which is a common feature of some gliomas (FIG. 4C).

Assay [5] relates to human glioma cells in a rodent xenograft. The assay can be described thus: In vivo labeling after intra-arterial injection of fixable SR101. Set-up: species or system rat. To be noted: brains processed two hours post-injection. The text has this: Twenty days post-implantion, rats were deeply anesthetized using the previously described ketamin/xylazine mixture. The rats were then intra-arterially injected with Texas red hydrazide. Two hours post-injection brains were perfused, fixed, and sectioned on a cryostat. Sections were mounted on slides and imaged with a Zeiss LSM 710 confocal microscope.

For the compound `O=S(=O)([O-])c1cc(S(=O)(=O)O)ccc1C1=c2cc3c4c(c2Oc2c1cc1c5c2CCCN5CCC1)CCC[N+]=4CCC3` [SR101, Sulforhodamine 101], in assay [1] (U251 xenograft acute slices, fixable SR101, stereology), the “co-localization with GFAP-positive cells in astrocytoma regions” value is 79.6%. In assay [2] (MC116 xenograft acute slices, fixable SR101, stereology), the “co-localization with CD20 positive cells in lymphoma tumor regions” value worked out at 1.97%. In assay [2] (acute slices from nude rats implanted with human CNS lymphoma cells), the “SR101 signal / cells labeled in lymphoma regions” value was “minimal; also recorded: small number of cells”. Also, the “mean fluorescence intensity (MFI), tumor” value with U251 derived tumor (SR101-labeled tumor core, acute slice, 5 uM SR101 20 minutes) is given as 102.84. The “mean fluorescence intensity (MFI), background” value with U251 derived tumor (background of SR101-labeled tumor core image, acute slice) is on record as 8.74. Moreover, the “difference in mean fluorescence intensity between U251 cells and reactive astrocytes” value in the assay on U251 derived tumor (normalized to background, n=9 optical sections from 3 acute slices) is recorded as “no statistically significant difference; also recorded: did not differ”. The “SR101 labeling of cultured U251 astrocytoma cells” value in assay [3] is “filled the cytoplasm of the cultured cell and clearly delineated cell nuclei”. The “staining of human lymphoma” value in assay [4] (human biopsies) was “negative; also recorded: failed to stain”. In assay [4] (human biopsies versus final diagnosis), the “astrocytoma cases selectively stained” value was 14 of 15. In addition, in assay [4] (human biopsies, 5 uM SR101), the “staining of cells from astrocytoma tumor cores” value was “strong cytoplasmic staining” and the “staining of non-astrocytic tumor samples / other CNS neoplasms” value was “did not stain; also recorded: non-specific background staining”. For the same compound, the “labeling of low grade human oligodendroglioma samples” value in assay [4] (human biopsies, samples often GFAP positive) is recorded as “does not stain; also recorded: did not label”.
Regarding `NNS(=O)(=O)c1ccc(C2=c3cc4c5c(c3Oc3c2cc2c6c3CCCN6CCC2)CCC[N+]=5CCC4)c(S(=O)(=O)[O-])c1` [fixable SR101, Texas Red Hydrazide], the “cells positive for fixable SR101 in astrocytoma tumor regions” value in assay [1] is on record as “majority of cells were positive”; in assay [1] (listed as Fixable-SR101), “labeled the majority of cells”. Further, the “in vivo labeling of tumor cells and tumor margin” value in assay [5] is “specific in vivo labeling of human glioma cells”.
